Assay results published in patent publication US20230257373A1, “QUORUM SENSING INHIBITORS AND METHODS OF USE” (priority 2020, published 2023).
Where two headings read alike, the source gives them in different places.

Tests used:
V. campbellii LuxR = target: T1, V. campbellii LuxR (Vibrio harveyi, UniProt P21308); experiment: E. coli dual-color bioassay (pKM699 LuxR, pJV064 reporter); assay type: cell-based
T1 construct: expressed in transfected cells; host or cells: E. coli DH10B with pKM699 and reporter pJV064
Excerpt: Previously, we developed a bioassay that consists of a dual-color fluorescent reporter plasmid that reports both LuxR activities: the luxCDABE promoter is activated by LuxR and drives expression of gfp, and the VIBHAR_05222 promoter is repressed by LuxR and drives expression of mCherry (van Kessel et al., 2013b) (FIG. 2A). We used this reporter plasmid in an E. coli strain that also contains a plasmid expressing LuxR from its native promoter.
A bioassay was developed to monitor LuxR function that consists of a dual-color reporter plasmid (pJV064) that reports both activities: the luxCDABE promoter is activated by LuxR and drives expression of gfp, and the 05222 promoter is repressed by LuxR and drives expression of mCherry (van Kessel, Ulrich et al. 2013). This reporter plasmid was used in an E. coli strain that also contains a plasmid (pKM699) expressing LuxR from its native promoter. E. coli cultures containing these two plasmids were grown at 30° C. in LB medium with chloramphenicol (10 μg/ml) and tetracycline (10 μg/ml) to select for the two plasmids. Compounds were added to the cultures at a range of concentrations, and the cultures were incubated for 16 hours shaking at 30° C.
The dual-promoter fluorescence reporter assays were performed using E. coli strain DH10B containing two plasmids: 1) plasmid pJV064 containing the PluxC fused to GFP and P05222fused to mCherry to assess LuxR transcriptional regulation, and 2) plasmid pKM699 expressing V. campbellii luxR under control of its native promoter or empty vector pLAFR2.

SmcR = SmcR (Vibrio vulnificus, UniProt Q9L8G8); experiment: E. coli bioassay expressing SmcR (IPTG-inducible plasmid); assay type: cell-based, V. vulnificus
Excerpt: (§1) We hypothesized that there were several possible reasons for the observed difference in PTSP inhibition in the various Vibrio species, including but not limited to: 1) differences in LuxR-inhibitor interaction(s), 2) differences in diffusion of the inhibitor across the membranes, or 3) stability of the inhibitor in the cell and/or cell culture. To examine PTSP activity in a common strain background, we cloned the luxR gene from each Vibrio species into a plasmid under control of an IPTG-inducible promoter and assayed the effect of PTSP against these proteins in the E. coli bioassay. […] We conclude that the differences in PTSP activity in Vibrio species is due to differences in interaction between PTSP and the LuxR-type protein in each Vibrio.
(§2) We therefore sought to determine if any of the four residues that differ between HapR and LuxR/SmcR in the putative ligand binding pocket are sufficient to render SmcR insensitive to PTSP. First, we introduced substitutions in SmcR to mimic the amino acid sequence of HapR: F75Y, I96L, […], and C170F. […] Next, we introduced single substitutions in HapR to mimic the amino acid present in SmcR: Y76F, L97I, I141V, and F171C.
(§3) In E. coli assays expressing the five different LuxR-type proteins (luxR, smcR, opaR, vcpR, hapR), slight changes to the protocol were implemented. The luxR genes were cloned under control of the IPTG-inducible Ptac promoter in plasmid pMMB67EH-kanR. […] Strains expressing hapR or smcR required 50 μM IPTG to observe activation of the GFP reporter; IPTG was not added to strains expressing luxR, vcpR, or opaR.

HapR = experiment: E. coli bioassay expressing HapR (IPTG-inducible plasmid); assay type: cell-based, V. cholerae
Excerpt: as §1, §2, §3

V. cholerae = experiment: Quorum sensing reporter in V. cholerae; settings: even at high concentrations
[1] = tested on: PluxC-gfp reporter in V. vulnificus; experiment: PluxC-gfp reporter in V. vulnificus strains; settings: Vibrio vulnificus
[2] = tested on: V. vulnificus protease activity; experiment: Protease assay (azocasein) in V. vulnificus; settings: for IC50: Vibrio vulnificus
Vibrio strains = experiment: luxCDABE reporter across five Vibrio species; settings: each Vibrio strain except V. cholerae
LuxR = LuxR (Vibrio harveyi, UniProt P21308); experiment: ITC analysis of LuxR interaction with inhibitors; assay type: binding, V. campbellii; design: made in house; host or cells: E. coli BL21(DE3)
Excerpt: To test the validity of the modelling predictions for PTSP, we performed isothermal titration calorimetry (ITC) to determine the binding affinity of SmcR and LuxR for PTSP. […] We noted that PTSP binding to both LuxR and SmcR had lower entropy and enthalpy compared to SmcR binding to Qstatin. […] Thus, we conclude that the efficacy of PTSP inhibition in vivo in these two Vibrio species correlates to the binding affinity determined in vitro for these two proteins.
SmcR and LuxR were purified as described previously. EMSAs were conducted as described previously using oligonucleotides corresponding to the luxC and vvpE promoter sequences. ITC analysis was conducted using purified LuxR or His-tagged SmcR, each in gel-filtration buffer (25 mM Tris pH 7.5, 300 mM NaCl, 0.5 mM EDTA, 1 mM DTT, 2% DMSO). All molecules analyzed were diluted in the same buffer. The samples were degassed for 10 min by vacuum aspiration. Titrations were performed on a Nano-ITC (TA Instruments). […] Thermograms were analyzed using NanoAnalyze software with the independent binding model.

[3] = tested on: PluxC-gfp reporter in V. coralliilyticus; experiment: PluxC-gfp reporter in V. coralliilyticus strains

O=S(=O)(c1cccs1)n1ccc(-c2ccccc2)n1 [Compound 10B]
Inhibition of LuxR in the E. coli bioassay (in words) (V. campbellii LuxR; GFP and mCherry reporters): most potent
Time after addition at which GFP production was blocked (V. campbellii LuxR; addition to the culture): 120 min
Duration for which block of GFP production was maintained (V. campbellii LuxR; longest timepoint tested): ≥ 16 h
IC50 (V. campbellii LuxR; read-out: IC50 in the bioassay (approximate)): 1000 to 2000 nM
Inhibition of SmcR in E. coli bioassay (SmcR; 25 μM PTSP): inhibited
Inhibition of SmcR C170F (SmcR; SmcR substitution C170F): abolished PTSP inhibition
Inhibition of SmcR F75Y (SmcR; SmcR substitution F75Y): abolished PTSP inhibition
Inhibition of SmcR I96L (SmcR; SmcR substitution I96L): not significantly different from wild-type SmcR
Inhibition of SmcR V1401 (SmcR; SmcR substitution V1401): not significantly different from wild-type SmcR
Inhibition of HapR in E. coli bioassay (HapR; 25 μM PTSP): unresponsive
Inhibition of HapR single substitutions (HapR; HapR Y76F, L97I, I141V, F171C, each alone): none of these substitutions alone were sufficient to make HapR sensitive
Inhibition of HapR Y76F and F171C combination (HapR; combination of Y76F and F171C): did not result in PTSP inhibition
Inhibition in V. cholerae (in words) (V. cholerae): not active
IC50 ([1]; ATCC27562, read-out: IC50, V. vulnificus ATCC 27562, luxCDABE reporter plasmid): 40 nM
IC50 ([1]; ATCC27562, read-out: Inhibition (IC50) of the PluxC-gfp reporter, Vvul ATCC 27562): 1.96 nM
IC50 ([1]; read-out: IC50, V. vulnificus, b235): 2 nM
IC50 ([1]; read-out: IC50 values for all three V. vulnificus clinical isolates, three clinical isolates): 2 to 30 nM
IC50 ([1]; read-out: Inhibition (IC50) of the PluxC-gfp reporter, Vvul CMPC6): 29.5 nM
IC50 ([1]; read-out: Inhibition (IC50) of the PluxC-gfp reporter, Vvul YJ016): 3.78 nM
Protease activity of wild-type strain ([2]; 2.5 μM PTSP vs DMSO, V. vulnificus): significantly reduced protease activity
IC50 ([2]; ATCC27562, read-out: IC50 of protease inhibition, V. vulnificus ATCC 27562): 6.8 nM
IC50 ([2]; read-out: IC50 of protease inhibition, V. vulnificus CMPC6): 78.1 nM
IC50 ([2]; read-out: IC50 of protease inhibition, V. vulnificus YJ016): 18.3 nM
IC50 values lower than Qstatin (Vibrio strains): ~10 fold
Ka (LuxR): 2.3e+06 M⁻¹
ΔG (LuxR): -8.626 kcal/mol
ΔH (LuxR): -32.529 kcal/mol
ΔS (LuxR): −335.40 J/mol · K
−TΔS (LuxR): 23.9 kcal/mol
Kd (LuxR; 25° C.): 513 nM
IC50 ([3]; read-out: IC50, V. coralliilyticus OCN008, luxCDABE reporter plasmid): 2200 nM
IC50 ([3]; read-out: Inhibition (IC50) of the PluxC-gfp reporter, Vcoral OCN 008): 1430 nM
IC50 ([3]; read-out: Inhibition (IC50) of the PluxC-gfp reporter, Vcoral OCN 014): 2370 nM
